Measurements: patent publication US6403805B1 (Janssen Pharmaceutica N.V., priority 1995, dated 2002)

How the values were obtained:
[1] = molecular target: T1, recombinant human MNL phosphodiesterase type IV B (Homo sapiens, UniProt Q07343); assay: Inhibition of recombinant human mononuclear lymphocyte (MNL) phosphodiesterase type IV B produced in insect cells with a baculovirus vector; type: biochemical; conditions: recombinant human MNL PDE IV B; 0.8 μM 3H-cAMP, pH 8, 37° C.; calculated graphically
T1 construct: made in house; host or cells: insect cells infected with recombinant baculovirus
T1 sequence (Q07343 whole entry): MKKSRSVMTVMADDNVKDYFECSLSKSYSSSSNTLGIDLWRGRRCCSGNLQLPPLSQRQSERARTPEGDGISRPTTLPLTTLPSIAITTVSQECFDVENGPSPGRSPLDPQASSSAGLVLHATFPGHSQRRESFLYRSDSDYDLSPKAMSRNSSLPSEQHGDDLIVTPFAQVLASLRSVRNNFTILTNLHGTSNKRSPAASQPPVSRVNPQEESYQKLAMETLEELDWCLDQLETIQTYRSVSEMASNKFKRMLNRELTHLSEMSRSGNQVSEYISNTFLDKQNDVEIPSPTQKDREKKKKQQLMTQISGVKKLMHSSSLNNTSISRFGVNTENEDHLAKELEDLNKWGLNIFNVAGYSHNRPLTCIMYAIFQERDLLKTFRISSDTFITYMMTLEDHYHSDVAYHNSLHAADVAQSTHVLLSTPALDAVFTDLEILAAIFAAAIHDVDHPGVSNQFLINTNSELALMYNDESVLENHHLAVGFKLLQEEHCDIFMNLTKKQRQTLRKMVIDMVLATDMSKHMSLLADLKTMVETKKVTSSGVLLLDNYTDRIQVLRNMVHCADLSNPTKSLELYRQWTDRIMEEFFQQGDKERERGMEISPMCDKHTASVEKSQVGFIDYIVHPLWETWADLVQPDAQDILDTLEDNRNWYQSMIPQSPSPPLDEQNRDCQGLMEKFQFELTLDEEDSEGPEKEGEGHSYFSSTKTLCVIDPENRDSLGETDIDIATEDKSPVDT
Experimental: Inhibition of recombinant human mononuclear lymphoctye (MNL) phosphodiesterase type IV B produced in insect cells with a baculovirus vector
The alleviating and/or curing effect of the instant compounds on allergic and atopic diseases was assessed by an in vitro assay system to detect an inhibiting effect on the recombinant human MNL phosphodiesterase type IV B.
Seventy-two hours after infection with recombinant baculovirus, the insect cells were harvested and pelleted at 500 g for 5 minutes. The cells were lysed in 10 ml lysis-buffer consisting of 20 mM Tris, 10 mM EGTA, 2 mM Na2EDTA, 1% Triton-X-100, 1 mM Na3VO4, 10 mM NaF, 2 μg/ml of leupeptine, pepstatine and aprotinine, 0.3 μg/ml benzamidine and 100 μg/ml TPCK pH 7.5. After 5 minutes on ice, solubilized cells were centrifuged at 4000 rpm for 15 minutes at 4° C. The resulting supernatant was filtered through a 0.45 μm filter (Millipore) and brought to TBS buffer (50 mM Tris, 150 mM NaCl pH 7.4).
After washing the column with equilibration buffer, PDE IV was eluted in 1.5 ml fractions containing 37.5 μl 1M Tris pH 8. The fractions were dialyzed overnight against 20 mM Tris, 2 mM Na2EDTA and 400 mM NaCl pH 7.5 and tested for PDE IV activity. Identification was done on SDS PAGE and Western Blot (anti-FLAG-M2). Active fractions were pooled, brought to 10% glycerol and stored at −70° C.
The incubation mixture (pH 8) (200 μl) contained 20 mM Tris, 10 mM magnesium sulphate, 0.8 μM ^3H-cAMP (310 mCi/mmole) and the phosphodiesterase type IV, the amount depending on the enzymatic activity.
When the effect of different compounds on phosphodiesterase activity was tested, the medium without cAMP was incubated with the compound(s) or its carrier (DMSO-1% final concentration) for 5 min. The enzymatic reaction was started by addition of ^3H-cAMP and stopped 10 min later after transferring the microtiter-plate in a waterbath at 100° C. for 5 min. After cooling to room temperature, alkaline phosphatase (0.25 μg/ml) was added and the mixture was incubated at 37° C. for 20 min. 100 μl of the mixture was subsequently applied to a GF-B filter-microtiter-plate (Millipore) filled with 300 μl DEAE-Sephadex-A25 suspension. The plate was washed 3 times with 75 μl 20 mM Tris pH 7.5 and the filtrates were collected for counting in the Packard Top Count scintillation counter.
The inhibiting effect of the present compounds on recombinant human MNL phosphodiesterase PDE IV B was measured at different concentrations of the instant compounds. The IC50 values (expressed in M) were calculated graphically from the thus obtained inhibition values.

[2] = system: dextran-induced oedema formation in mouse ear; assay: Dextran-induced oedema formation in mouse ear; type: in vivo, Male Swiss mice; conditions: vs background blueing value; for inhibition in vivo at 5 mg/kg / inhibition in vivo at 2.5 mg/kg: Mus musculus, 1 h, read-out: % inhibition of the extravasation of the dye
Experimental: Dextran-induced oedema formation in mouse ear Systemic injection of dextran T500 in normal, non-sensitized mice elicits increased vascular permeability, leading to extravasation and oedema of the extremities. When dextran is injected together with a blue dye, blueing of the ears is the most prominent feature of oedematous response. Male Swiss mice weighting 24-26 g were orally pretreated with the test compound dissolved in PEG-200 at different concentrations or solvent. One hour later, the mice were given an intravenous injection with an isotonic saline solution containing 12 mg/ml dextran T500 and 2.6 mg/ml pontamine sky-blue dye, in a volume of 0.1 ml per 10 g body weight. One hour and forty-five minutes later, the animals are sacrificed by ether and their ears removed. Extraction and quantification of the extravasated dye is done as described by Van Wauwe and Goossens (Drug Dev. Res. 1986, 8, 213-218). The extravasation of the dye is characterized by the blueing value which is defined as the concentration of the extracted dye in both ears. The background blueing value was determined once as the mean blueing value obtained by injecting a group of mice with a saline solution containing only dextran T500 and the blue dye. Table 6 lists the percentage inhibition of the extravasation of the dye when compared with the background extravasation of the dye when the test compound was administered at a dose of 5 mg/kg. The test compounds indicated by an asterisk (*) were tested at a dose of 2.5 mg/kg

[3] = oral dose of 5 mg/kg in PEG-200, one hour before i.v. dextran T500/pontamine sky-blue
[4] = asterisk (*): oral dose of 2.5 mg/kg in PEG-200, one hour before i.v. dextran T500/pontamine sky-blue
[5] = oral dose of 5 mg/kg in PEG-200, one hour before i.v. dextran T500/pontamine sky-blue, 5 mg/kg

| Compound | IC50 [1] [nM] | inhibition in vivo at 5 mg/kg [2, 3] [%] | also measured |
| --- | --- | --- | --- |
| 1,3-dihydro-1-[2-(3,4-dimethoxyphenyl)ethyl]-2-methyl-3H-imidazol-2-one [Compound 86] | 1800 | – | % inhibition of the extravasation of the dye [2, 3]: 39.0% |
| COc1ccc(C(C)Cn2cc[nH]c2=O)cc1OC1CCCC1 (racemic) [Compound 1, (±)-1-[2-[3-(cyclopentyloxy)-4-methoxyphenyl]propyl]-1,3-dihydro-2H-imidazol-2-one] | 4.8 | 83.1 | – |
| COc1ccc(C(O)(Cn2cc[nH]c2=O)c2ccccc2)cc1OC1CCCC1 (racemic) [Compound 8, (±)-1-[2-[3-(cyclopentyloxy)-4-methoxyphenyl]-2-hydroxy-2-phenylethyl]-1,3-dihydro-2H-imidazol-2-one] | 1900 | 12.4 | – |
| CCOC(=O)Cn1ccn(C(C)c2ccc(OC)c(OC3CCCC3)c2)c1=O (racemic) [Compound 9, (±)-ethyl 3-[1-[3-(cyclopentyloxy)-4-methoxy-phenyl]ethyl]-2,3-dihydro-2-oxo-1H-imidazole-1-acetate] | – | 10.2 | – |
| COc1ccc(C(C)Cn2cc[nH]c2=O)cc1OCC1CC1 (racemic) [Compound 10, (±)-1-[2-[3-(cyclopropylmethoxy)-4-methoxyphenyl]propyl]-1,3-dihydro-2H-imidazol-2-one] | < 10 | 91.9 | – |
| COc1ccc(C(N)CN2CCN(Cc3ccccc3)C2=O)cc1OC (racemic) [Compound 11, (±)-1-[2-amino-2-(3,4-dimethoxyphenyl)ethyl]-3-(phenylmethyl)-2-imidazolidinone] | – | 26.8 | – |
| COc1ccc(C(O)CN2CCNC2=O)cc1OC (racemic) [Compound 13, ±)-1-[2-(3,4-dimethoxyphenyl)-2-hydroxy-ethyl]-2-imidazolidinone] | – | – | % inhibition of the extravasation of the dye [2, 3]: 36.3% |
| COc1ccc(C(CN2CCNC2=O)NC(C)=O)cc1OC (racemic) [Compound 16, (±)-N-[1-(3,4-dimethoxyphenyl)[2-(2-oxo-1-imidazolidinyl)-ethyl]acetamide] | – | – | % inhibition of the extravasation of the dye [2, 3]: 10.8% |
| COc1ccc(C(O)Cn2cc[nH]c2=O)cc1O (racemic) [Compound 19, (±)-1,3-dihydro-1-[2-hydroxy-2-(3-hydroxy-4-methoxyphenyl)ethyl]-2H-imidazol-2-one] | – | – | inhibition in vivo at 2.5 mg/kg [2, 4]: 49.4% |
| O=c1[nH]ccn1CC(F)c1ccc(OC(F)F)c(OCC2CC2)c1 (racemic) [Compound 20, (±)-1-[2-[3-(cyclopropylmethoxy)-4-(difluoromethoxy)phenyl-2-fluoroethyl]-1,3-dihydro-2H-imidazol-2-one] | – | – | % inhibition of the extravasation of the dye [2, 4]: 94.4% |
| COc1ccc(C(C)Cn2cc[nH]c2=O)cc1OC1CCCC1 (stereo not shown) [Compound 6, (A)-1-[2-[3-(cyclopentyloxy)-4-methoxy-phenyl]propyl]-1,3-dihydro-2H-imidazol-2-one] | 4.1 | – | % inhibition of the extravasation of the dye [2, 5]: 85.1% |
| COc1ccc(C(C)Cn2cc[nH]c2=O)cc1OC1CCCC1 (stereo not shown) [Compound 7, (B)-1-[2-[3-(cyclopentyloxy)-4-methoxyphenyl]propyl]-1,3-dihydro-2H-imidazol-2-one] | 43 | – | % inhibition of the extravasation of the dye [2, 5]: 67.0% |
| COc1ccc(C(C)Cn2cc[nH]c2=O)cc1OCC1CC1 (stereo not shown) [Compound 22, (A)-1-[2-[3-(cyclopropylmethoxy)-4-methoxyphenyl]propyl]-1,3-dihydro-2H-imidazol-2-one] | 45 | 83.5 | – |
| COc1ccc(C(C)Cn2cc[nH]c2=O)cc1OCC1CC1 (stereo not shown) [Compound 23, (B)-1-[2-[3-(cyclopropylmethoxy)-4-methoxyphenyl]propyl]-1,3-dihydro-2H-imidazol-2-one] | – | – | % inhibition of the extravasation of the dye [2, 3]: 72.1% |
| COc1ccc(C(C)Cn2cc[nH]c2=O)cc1OC1CCOC1 (stereo not shown) [Compound 29] | 240 | – | inhibition in vivo at 2.5 mg/kg [2, 4]: 90.7% |
| COc1ccc(C(C)Cn2cc[nH]c2=O)cc1OCC1CCCC1 (stereo not shown) [Compound 32] | 140 | 76.2 | – |

| Compound | IC50 [1] [nM] | inhibition in vivo at 5 mg/kg [2, 3] [%] | also measured |
| --- | --- | --- | --- |
| COc1ccc(C(C)Cn2cc[nH]c2=O)cc1OCC1CCCO1 (stereo not shown) [Compound 33] | 2300 | 65.8 | – |
| CC(Cn1cc[nH]c1=O)c1ccc(OC(F)F)c(OCc2ccccc2)c1 (stereo not shown) [Compound 34] | 190 | 31.1 | – |
| COc1ccc(CCn2cc[nH]c2=O)cc1OC1CCOC1 (stereo not shown) [Compound 35] | 180 | 90.1 | – |
| CC(Cn1ccnc1O)c1ccc(OC(F)F)c(OC2CCCC2)c1 (stereo not shown) [Compound 37] | 0.7 | 75.7 | – |
| CC(Cn1cc[nH]c1=O)c1ccc(OC(F)F)c(OC(F)F)c1 (stereo not shown) [Compound 38] | 20 | 76.6 | – |
| COc1ccc(C(C)Cn2cc[nH]c2=O)cc1OC (stereo not shown) [Compound 76, 1,3-dihydro-1-[2-(3,4-dimethoxyphenyl)propyl]-2H-imidazol-2-one] | 150 | 69 | – |
| COc1ccc(C(C)Cn2c(C)c[nH]c2=O)cc1OC (stereo not shown) [Compound 77, 1,3-dihydro-1-[2-(3,4-dimethoxyphenyl)propyl]-5-methyl-2H-imidazol-2-one] | 7300 | 35.8 | – |
| COc1ccc(CCN2CCNC2=O)cc1OC [Compound 78, 1-[2-(3,4-dimethoxyphenyl)ethyl]-1,3,4,5-tetrahydro-2H-imidazol-2-one] | 9000 | 31.3 | – |
| COc1ccc(CCn2cc[nH]c2=O)cc1OC [Compound 79, 1,3-dihydro-1-[2-(3,4-dimethoxyphenyl)ethyl]-2H-imidazol-2-one] | 770 | 61.6 | – |
| COc1ccc(C(C)CN2CCNC2=O)cc1OC (stereo not shown) [Compound 80, 1-[2-(3,4-dimethoxyphenyl)propyl]-1,3,4,5-tetrahydro-2H-imidazol-2-one] | 3200 | 53.4 | – |
| COc1cc(Br)c(CCn2cc[nH]c2=O)cc1OC [Compound 81, 1,3-dihydro-2-[2-(2-bromo-4,5-dimethoxyphenyl)ethyl]-2H-imidazol-2-one] | – | – | % inhibition of the extravasation of the dye [2, 3]: 34.1% |
| CCOc1ccc(CCn2cc[nH]c2=O)cc1OCC [Compound 82] | 460 | 28.2 | – |
| COc1ccc(C(Cn2cc[nH]c2=O)OC)cc1OC (stereo not shown) [Compound 83, 1,3-dihydro-1-[2-(3,4-dimethoxyphenyl)-2-methoxy-ethyl]-2H-imidazol-2-one] | 2700 | 18.6 | – |
| COc1ccc(Cn2cc[nH]c2=O)cc1OC [Compound 84, 1,3-dihydro-1-[(3,4-dimethoxyphenyl)methyl]-2H-imidazol-2-one] | – | 46.5 | – |
| COc1ccc(CCCn2cc[nH]c2=O)cc1OC [Compound 85, 1,3-dihydro-1-[3-(3,4-dimethoxyphenyl)propyl]-2H-imidazol-2-one] | – | 31.6 | – |
